Test results taken from patent publication US11236102B2, “Oxabicycloheptane prodrugs” (Lixte Biotechnology, Inc., priority 2015, dated 2022).
Several values for one entry are separate records, joined by “and”; a condition that tells them apart may be missing. Equal values may be shown once. Marks after values point to notes of the source that are not given here.

Assay: Pharmacokinetic study of 153 (iv, po) in SD rats: 153 and endothal in plasma, liver, brain
Assay type: in vivo, SD rats
Protocol: The blood, liver and brain tissue samples were collected at predetermined times from rats. […] Compound were diluted shortly before use in 4% sodium bicarbonate for sterile injection (this is the standard pediatric solution of NaHCO3 with a pH of about 8.5).
Compound 153 was freshly prepared by diluting the drugs shortly before use in 4% sodium bicarbonate for sterile injection (this is the standard pediatric solution of NaHCO3 with a pH of about 8.5). The final concentrations of 153 solutions were 0.25 mg/mL. The 153 solutions were administered via iv or po route at dose volume of 5 ml/kg according to the latest body weight. Compound 157 was freshly prepared by diluting the drugs shortly before use in 4% sodium bicarbonate for sterile injection (this is the standard pediatric solution of NaHCO3 with a pH of about 8.5). The final concentrations of […] solutions were 0.3 mg/mL. The 157 solutions were administered via iv or po route at dose volume of 5 ml/kg according to the latest body weight.
Twelve (12) female SD rats per group were dosed by iv with 153 or 157. The rats were fasted overnight prior to dosing, with free access to water. Foods were withheld for 2 hours post-dose. Blood, liver and brain tissue samples in two animals each group were collected at each time point, within 10% of the scheduled time for each time point. Two extra animals were used for analytic method development.
Blood (>0.3 mL) were collected via aorta abdominalis in anaesthetic animals into tubes containing heparin at 15 min, 1, 2, 6, 10 and 24 hours after iv administration. Liver and brain tissues were collected immediately after animal death. The liver and brain tissues were excised and rinsed with cold saline to avoid blood residual. Upon collection, each sample was placed on ice and the blood samples were subsequently centrifuged (4° C., 11000 rpm, 5 min) to separate plasma.
The obtained plasma, liver and brain tissue samples were stored at −70° C. until LC-MS/MS analysis.
Two (2) female SD rats per group were dosed by po with 153 or 157. The rats were fasted overnight prior to dosing, with free access to water. Foods were withheld for 2 hours post-dose. Blood samples (>0.3 mL) were collected via aorta abdominalis in anaesthetic animals into tubes containing heparin at 30 min, 1, 2, 6, 10 and 24 hours after po administration.
To each sample, 20 μL IS-D (for blank samples, 20 μL acetonitrile:water (1:1) was added) and 300 μl acetonitrile was added. The sample mixture was vortexed for approximately 3 min. After centrifugation at 10000 rpm for 5 min at 4° C., 100 μL of the upper layer was transferred to a new tube and added 200 μL 0.4% formic acid in water (pH 6.0). The mixture was vortexed for approximately 3 min before injected onto the LC/MS/MS system for analysis.
On the day of the assay, the frozen liver and brain samples were thawed unassisted at room temperature. An about 200 mg weighed sample of each thawed tissue was placed into a plastic tube with water (0.6 mL) to facilitate homogenization. Tissue processing was conducted using a homogenizer for approximately 1 min, 200 μl homogenate was transferred into a fresh Eppendorf tube. To each tube, 50 μL IS-D was added and mixed. Then 600 ul acetonitrile was added and the sample mixture was vortexed for approximately 3 min. After centrifugation at 10000 rpm for 5 min at 4° C., 400 μL of the upper layer was transferred to a new tube and evaporate the supernatant to dryness at 35° C. Reconstitute the residue with 200 μL of 0.4% formic acid in water (pH6.0), and vortex for 3 min, submit for LC-MS/MS analysis.
Frozen unknown plasma samples were completely thawed at room temperature and vortexed thoroughly. With a pipette, 50 μL of plasma was transferred into a 2.0 mL Eppendorf tube. 50 μL of 0.1N HCl and 800 μL ethyl acetate were added into each sample. The sample mixture was vortexed for approximately 3 min.

[1] = iv 1.25 mg/kg, 0.25 hr, individual rats, 1.25 mg/kg
[2] = iv 1.25 mg/kg, 1 hr, individual rats, 1.25 mg/kg
[3] = iv 1.25 mg/kg, 2 hr, individual rats, 1.25 mg/kg
[4] = plasma, 153 1.25 mg/kg PO, individual rats, 1.25 mg/kg

CCCOC(=O)C1C2CCC(O2)C1C(=O)N1CCN(C)CC1 (stereo not shown) [Compound 153]
153 plasma concentration (PO 1.25 mg/kg, 0.25 hr, individual rats, 1.25 mg/kg): 652 ng/mL | 153 plasma concentration (PO 1.25 mg/kg, 1 hr, individual rats, 1.25 mg/kg): 121 ng/mL | MRT (female, SD, rat, in vivo, iv, 1.25 mg/kg, MRT (0 t)): 40 min | MRT (0 t) (female, SD, rat, in vivo, po, 1.25 mg/kg): 60.6 min | MRT (female, SD, rat, in vivo, po, 1.25 mg/kg, MRT (0 t)): 59.2 min | MRT (female, SD, rat, in vivo, plasma, 153 1.25 mg/kg PO, individual rats, read-out: MRT (0 t)): 62.4 min | Cmax (female, Sprague-Dawley, rat, in vivo, iv, 1.25 mg/kg): 762 ng/g | concentration at 2 hr (female, Sprague-Dawley, rat, in vivo, po, 1.25 mg/kg): 0.042 µg/mL | concentration at 0.25 hr (female, Sprague-Dawley, rat, in vivo, po, 1.25 mg/kg, PO 1.25 mg/kg, 0.25 hr, individual rats): 0.872 µg/mL | concentration at 0.25 hr (female, Sprague-Dawley, rat, in vivo, po, 1.25 mg/kg, PO 1.25 mg/kg, 0.25 hr, mean): 0.762 µg/mL | concentration at 1 hr (female, Sprague-Dawley, rat, in vivo, po, 1.25 mg/kg, PO 1.25 mg/kg, 1 hr, individual rats): 0.131 µg/mL | concentration at 1 hr (female, Sprague-Dawley, rat, in vivo, po, 1.25 mg/kg, PO 1.25 mg/kg, 1 hr, mean): 0.126 µg/mL | concentration at 2 hr (female, Sprague-Dawley, rat, in vivo, po, 1.25 mg/kg, PO 1.25 mg/kg, 2 hr, individual rats, read-out: 153 plasma concentration): 0.0412 µg/mL | concentration at 2 hr (female, Sprague-Dawley, rat, in vivo, po, 1.25 mg/kg, PO 1.25 mg/kg, 2 hr, mean, read-out: 153 plasma concentration): 0.0416 µg/mL | 153 brain concentration [1]: 45 ng/g and 40.3 ng/g | 153 liver concentration [1]: 872 ng/g and 652 ng/g | 153 plasma concentration [1]: 563 ng/mL and 550 ng/mL | 153 brain concentration (iv 1.25 mg/kg, 0.25 hr, mean): 42.7 ng/g | 153 liver concentration (iv 1.25 mg/kg, 0.25 hr, mean): 762 ng/g | 153 plasma concentration (iv 1.25 mg/kg, 0.25 hr, mean): 557 ng/mL | 153 brain concentration [2]: 13.9 ng/g and 14.3 ng/g | 153 liver concentration [2]: 131 ng/g and 121 ng/g | 153 plasma concentration [2]: 58 ng/mL and 51.4 ng/mL | 153 brain concentration (iv 1.25 mg/kg, 1 hr, mean): 14.1 ng/g | 153 liver concentration (iv 1.25 mg/kg, 1 hr, mean): 126 ng/g | 153 plasma concentration (iv 1.25 mg/kg, 1 hr, mean): 54.7 ng/mL | 153 brain concentration [3]: 4.05 ng/g and 4.75 ng/g | 153 liver concentration [3]: 42 ng/g and 41.2 ng/g | 153 plasma concentration [3]: 14.8 ng/mL and 13 ng/mL | 153 brain concentration (iv 1.25 mg/kg, 2 hr, mean): 4.4 ng/g | 153 liver concentration (iv 1.25 mg/kg, 2 hr, mean): 41.6 ng/g | 153 plasma concentration (iv 1.25 mg/kg, 2 hr, mean): 13.9 ng/mL | 153 plasma concentration (iv 1.25 mg/kg, 6 hr, individual rats, 1.25 mg/kg): 1.04 ng/mL and 1.02 ng/mL | 153 plasma concentration (iv 1.25 mg/kg, 6 hr, mean): 1.03 ng/mL | 153 plasma concentration (iv 1.25 mg/kg, 10 hr, individual rat, abnormal, not included in the calculation): 9.42* ng/mL | T1/2 in brain (iv administration of 153): 35.8 min | T1/2 in liver (iv administration of 153): 37.6 min | Cmax (plasma, 153 1.25 mg/kg IV, individual rats, 1.25 mg/kg): 0.563 µg/mL | AUC [4]: 0.163 µg·h/mL | AUC0-∞ [4]: 0.163 µg·h/mL | AUClast in brain (rat, in vivo, iv): 39.4 ng·h/g | AUClast in liver (rat, in vivo, iv): 500 ng·h/g | oral availability (rat, in vivo, po, 1.25 mg/kg): orally available
